Where a name gives a salt, the structure may show the parent alone. Read-outs that look alike come from different tables or passages of the source.
Key:
Bcl-2 protein = Bcl-2 protein (histag-Bcl-2, UniProtKB P10415) (Homo sapiens (Human), UniProt P10415); assay: Inhibition of Bcl-2 by the fluorescence polarisation technique; type: binding; conditions: incubation for 2 hours, read-out: IC50 (nM) Bcl-2 FP
Procedure, shortened: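 Fluorescence polarisation competition: His-tagged Bcl-2 (2.50×10^−8 M final) with fluorescein-labelled peptide (1.00×10^−8 M final) in 10 mM Hepes, 150 mM NaCl, 0.05% Tween20, pH 7.4. Increasing compound concentrations were added. Polarisation was read after 2 h incubation.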

[1] = test system: RS4;11 leukaemia tumour line; assay: In vitro cytotoxicity (Microculture Tetrazolium Assay); type: cell-based; conditions: RS4;11 cells, exposed for 48 hours, cell viability, read-out: IC50 (nM) MTT RS4;11
Protocol: The cytotoxicity studies were carried out on the RS4;11 leukaemia tumour line.
The cells are distributed onto microplates and exposed to the test compounds for 48 hours.
The cell viability is then quantified by a colorimetric assay, the Microculture Tetrazolium Assay (Cancer Res., 1987, 47, 939-942).

Bcl-2 protein, sequence (P10415 whole entry): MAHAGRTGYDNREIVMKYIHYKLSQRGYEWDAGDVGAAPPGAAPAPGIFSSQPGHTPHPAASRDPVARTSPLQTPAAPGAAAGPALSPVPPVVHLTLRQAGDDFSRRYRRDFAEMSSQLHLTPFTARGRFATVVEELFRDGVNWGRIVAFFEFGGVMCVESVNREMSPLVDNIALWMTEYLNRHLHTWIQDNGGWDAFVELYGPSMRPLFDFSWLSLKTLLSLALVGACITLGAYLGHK

SMILES	IC50 (Bcl-2 protein) [nM]	IC50 [1] [nM]	IC50 ([1]; Homo sapiens, RS4-11, 48 h) [nM]
Cc1c(C(=O)N(c2ccc(O)cc2)c2cnc3c(c2)CCN3C)cc(-c2cc3c(cc2C(=O)N2Cc4ccccc4C[C@H]2CN2CCOCC2)OCO3)n1C [Example 49, N-(4-Hydroxyphenyl)-1,2-dimethyl-N-(1-methyl-2,3-dihydro-1H-pyrrolo[2,3-b]pyridin-5-yl)-5-(6-{[(3S)-3-(morpholin-4-ylmethyl)-3,4-dihydroisoquinolin-2(1H)-yl]carbonyl}-1,3-benzodioxol-5-yl)-1H-pyrrole-3-carboxamide dihyrochloride]	4	14.1	
Cc1c(C(=O)N(c2ccc(O)cc2)c2cc3ccn(C)c3cn2)cc(-c2cc(Cl)ccc2C(=O)N2Cc3ccccc3C[C@H]2CN2CCOCC2)n1C [Example 389, 5-(5-Chloro-2-{[(3S)-3-(morpholin-4-ylmethyl)-3,4-dihydroisoquinolin-2(1H)-yl]carbonyl}phenyl)-N-(4-hydroxyphenyl)-1,2-dimethyl-N-(1-methyl-1H-pyrrolo[2,3-c]pyridin-5-yl)-1H-pyrrole-3-carboxamide hydrochloride]	14.7		208
Cc1c(C(=O)N(c2ccc(O)cc2)c2cnn(C)c2)cc(-c2cc3c(cc2C(=O)N2Cc4ccccc4C[C@H]2CN2CCOCC2)OCCO3)n1C [Example 21, N-(4-Hydroxyphenyl)-1,2-dimethyl-N-(1-methyl-1H-pyrazol-4-yl)-5-(7-{[(3S)-3-(morpholin-4-ylmethyl)-3,4-dihydroisoquinolin-2(1H)-yl]carbonyl}-2,3-dihydro-1,4-benzodioxin-6-yl)-1H-pyrrole-3-carboxamide hydrochloride]	4.7		79.9
Cc1c(C(=O)N(c2ccc(O)cc2)c2cc(C#N)n(CCN3CCOCC3)c2C)cc(-c2cc(Cl)ccc2C(=O)N2Cc3ccccc3C[C@H]2C)n1C [Example 455, 5-(5-Chloro-2-{[(3R)-3-methyl-3,4-dihydroisoquinolin-2(1H)-yl]-carbonyl}phenyl)-N-{5-cyano-2-methyl-1-[2-(morpholin-4-yl)ethyl]-1H-pyrrol-3-yl}-N-(4-hydroxyphenyl)-1,2-dimethyl-1H-pyrrole-3-carboxamide hydrochloride]	1.9		11.8
Cc1c(N(C(=O)c2cc(-c3cc(F)ccc3C(=O)N3Cc4ccccc4C[C@H]3CN3CCOCC3)n(C)c2C)c2ccc(O)cc2)cnn1C [Example 453, N-(1,5-Dimethyl-1H-pyrazol-4-yl)-5-(5-fluoro-2-{[(3S)-3-(morpholin-4-ylmethyl)-3,4-dihydroisoquinolin-2(1H)-yl]carbonyl}phenyl)-N-(4-hydroxyphenyl)-1,2-dimethyl-1H-pyrrole-3-carboxamide hydrochloride]	6.9		99.9
Cc1c(C(=O)N(c2ccccc2)c2ccc(O)cc2)cc(-c2cc(Cl)ccc2C(=O)N2Cc3ccccc3C[C@H]2CN2CCOCC2)n1C [Example 17, 5-(5-Chloro-2-{[(3S)-3-(morpholin-4-ylmethyl)-3,4-dihydroisoquinolin-2(1H)-yl]carbonyl}phenyl)-N-(4-hydroxyphenyl)-1,2-dimethyl-N-phenyl-1H-pyrrole-3-carboxamide hydrochloride]	8		75.2
Cc1c(C(=O)N(c2ccc(O)cc2)c2cnn(C)c2)cc(-c2cc3c(cc2C(=O)N2Cc4ccccc4C[C@H]2C)OCO3)n1CCN1CCOCC1 [Example 96, N-(4-Hydroxyphenyl)-2-methyl-5-(6-{[(3R)-3-methyl-3,4-dihydroisoquinolin-2(1H)-yl]carbonyl}-1,3-benzodioxol-5-yl)-N-(1-methyl-1H-pyrazol-4-yl)-1-[2-(morpholin-4-yl)ethyl]-1H-pyrrole-3-carboxamide hydrochloride]	13.5		161
Cc1c(C(=O)N(c2ccc(O)cc2)c2cc(C#N)n(C)c2)cc(-c2ccccc2C(=O)N2Cc3ccccc3C[C@H]2CN2CCOCC2)n1C [Example 433, N-(5-Cyano-1-methyl-1H-pyrrol-3-yl)-N-(4-hydroxyphenyl)-1,2-dimethyl-5-(2-{[(3S)-3-(morpholin-4-ylmethyl)-3,4-dihydroisoquinolin-2(1H)-yl]carbonyl}phenyl)-1H-pyrrole-3-carboxamide hydrochloride]	2.6		48.2
COc1cc(C(=O)N2Cc3ccccc3C[C@H]2C)c(-c2cc(C(=O)N(c3ccc(O)cc3)c3cnn(C)c3)c(C)n2C)cc1F [Example 62, 5-(5-Fluoro-4-methoxy-2-{[(3R)-3-methyl-3,4-dihydroisoquinolin-2(1H)-yl]carbonyl}phenyl)-N-(4-hydroxyphenyl)-1,2-dimethyl-N-(1-methyl-1H-pyrazol-4-yl)-1H-pyrrole-3-carboxamide]	14.3		127
COc1ccc(C(=O)N2Cc3ccccc3C[C@H]2CN2CCOCC2)c(-c2cc(C(=O)N(c3ccc(O)cc3)c3cc(C#N)n(C)c3C)c(C)n2C)c1 [Example 408, N-(5-Cyano-1,2-dimethyl-1H-pyrrol-3-yl)-N-(4-hydroxyphenyl)-5-(5-methoxy-2-{[(3S)-3-(morpholin-4-ylmethyl)-3,4-dihydroisoquinolin-2(1H)-yl]carbonyl}phenyl)-1,2-dimethyl-1H-pyrrole-3-carboxamide hydrochloride]	5.4		4.46
Cc1c(C(=O)N(C)c2ccc(O)cc2)cc(-c2cc(CNC(=O)NCc3ccccc3)ccc2C(=O)N2Cc3ccccc3C[C@H]2C)n1C [Example 51, 5-(5-{[(Benzylcarbamoyl)amino]methyl}-2-{[(3R)-3-methyl-3,4-dihydroisoquinolin-2(1H)-yl]carbonyl}phenyl)-N-(4-hydroxyphenyl)-N,1,2-trimethyl-1H-pyrrole-3-carboxamide]	26.7		354
Cc1c(C(=O)N(c2ccc(O)cc2)c2cccc(F)c2)cc(-c2cc3c(cc2C(=O)N2Cc4ccccc4C[C@H]2C)OCO3)n1C [Example 41, N-(3-Fluorophenyl)-N-(4-hydroxyphenyl)-1,2-dimethyl-5-(6-{[(3R)-3-methyl-3,4-dihydroisoquinolin-2(1H)-yl]carbonyl}-1,3-benzodioxol-5-yl)-1H-pyrrole-3-carboxamide]	10		22.6
Cc1c(N(C(=O)c2cc(-c3cc(Cl)ccc3C(=O)N3Cc4ccccc4CC3C(F)(F)F)n(C)c2C)c2ccc(O)cc2)cc(C#N)n1C (centres unmarked) [Example 454, 5-(5-Chloro-2-{[3-(trifluoromethyl)-3,4-dihydroisoquinolin-2(1H)-yl]carbonyl}phenyl)-N-(5-cyano-1,2-dimethyl-1H-pyrrol-3-yl)-N-(4-hydroxyphenyl)-1,2-dimethyl-1H-pyrrole-3-carboxamide]	6.5		158
Cc1c(C(=O)N(c2ccc(O)cc2)c2cnn(C)c2)cc(-c2cc(F)c(O)cc2C(=O)N2Cc3ccccc3C[C@H]2C)n1C [Example 68, 5-(5-Fluoro-4-hydroxy-2-{[(3R)-3-methyl-3,4-dihydroisoquinolin-2(1H)-yl]carbonyl}phenyl)-N-(4-hydroxyphenyl)-1,2-dimethyl-N-(1-methyl-1H-pyrazol-4-yl)-1H-pyrrole-3-carboxamide]	2.1		20.7
Cc1c(C(=O)N(c2cnc3c(ccn3C)c2)c2ccc(O)cn2)cc(-c2cc(Cl)ccc2C(=O)N2Cc3ccccc3C[C@H]2CN2CCOCC2)n1C [Example 464, 5-(5-Chloro-2-{[(3S)-3-(morpholin-4-ylmethyl)-3,4-dihydroisoquinolin-2(1H)-yl]carbonyl}phenyl)-N-(5-hydroxypyridin-2-yl)-1,2-dimethyl-N-(1-methyl-1H-pyrrolo[2,3-b]pyridin-5-yl)-1H-pyrrole-3-carboxamide dihydrochloride]	36.6		723
Cc1c(C(=O)N(c2ccc(O)cc2)c2cnc3c(c2)CCN3C)cc(-c2cc(Cl)ccc2C(=O)N2Cc3ccccc3C[C@H]2CCCN2CCOCC2)n1C [Example 394, 5-(5-Chloro-2-{[(3R)-3-[3-(morpholin-4-yl)propyl]-3,4-dihydroisoquinolin-2(1H)-yl]carbonyl}phenyl)-N-(4-hydroxyphenyl)-1,2-dimethyl-N-(1-methyl-2,3-dihydro-1H-pyrrolo[2,3-b]pyridin-5-yl)-1H-pyrrole-3-carboxamide]	2.5		2.76
Cc1c(C(=O)N(c2ccc(O)cc2)c2cccc(F)c2)cc(-c2cc(Cl)ccc2C(=O)N2Cc3ccccc3C[C@H]2CN2CCOCC2)n1C [Example 34, 5-(5-Chloro-2-{[(3S)-3-(morpholin-4-ylmethyl)-3,4-dihydroisoquinolin-2(1H)-yl]carbonyl}phenyl)-N-(3-fluorophenyl)-N-(4-hydroxyphenyl)-1,2-dimethyl-1H-pyrrole-3-carboxamide hydrochloride]	8.2		47
COc1ccc(N(C(=O)c2cc(-c3cc(F)ccc3C(=O)N3Cc4ccccc4C[C@H]3CN3CCOCC3)n(C)c2C)c2ccc(O)cc2)cc1C#N [Example 427, N-(3-Cyano-4-methoxyphenyl)-5-(5-fluoro-2-{[(3S)-3-(morpholin-4-ylmethyl)-3,4-dihydroisoquinolin-2(1H)-yl]carbonyl}phenyl)-N-(4-hydroxyphenyl)-1,2-dimethyl-1H-pyrrole-3-carboxamide hydrochloride]	2.2		23.3
COc1cc(-c2cc(C(=O)N(c3ccc(O)cc3)c3cc(C#N)n(C)c3C)c(C)n2C)c(C(=O)N2Cc3ccccc3C[C@H]2CN2CCOCC2)cc1F [Example 429, N-(5-Cyano-1,2-dimethyl-1H-pyrrol-3-yl)-5-(4-fluoro-5-methoxy-2-{[(3S)-3-(morpholin-4-ylmethyl)-3,4-dihydroisoquinolin-2(1H)-yl]carbonyl}phenyl)-N-(4-hydroxyphenyl)-1,2-dimethyl-1H-pyrrole-3-carboxamide hydrochloride]	3.1		109

From US9108983B2, “Pyrrole compounds, a process for their preparation and pharmaceutical compositions containing them” (LES LABORATOIRES SERVIER, priority 2013, dated 2015)
